Where “and” joins values, the source holds several entries; their conditions need not be identical. Equal entries are not always repeated. Entries after “also recorded” stand apart in the source; their conditions may differ.
Tests used:
[1] = system: hypocotyl explants of tomato cultivar Ailsa Craig; test: Shoot regeneration of tomato hypocotyl explants on shoot inducing medium (SIM); assay type: cell-based
Protocol: FIG. 8—Hypocotyl explants of wild-type (WT) Ailsa Craig and prr mutants cultured in the presence or absence of SIPEP (REF1) at 1 nM in a shoot inducing medium for 21 days.
Relative regeneration frequency was determined by counting the number of regenerated shoots and calculating the average for each group, the average of each group was then divided by the average of the control group.
The number of hypocotyls means explants with varying numbers of regenerated shoots.
To test whether SIPEP (REF1) could rescue shoot regeneration defects in prr mutants were cultured in shoot inducing medium (SIM) in the presence and absence of 1 nM REF1. Shoot regeneration was then scored after 21 days.
Relative regeneration frequency was determined by counting the number of regenerated shoots and calculating the average for each group, the average of each group was then divided by the average of the WT-Mock group.
‘The number of hypocotyls’ means explants with different number of regenerated shoots (0, 1, 2, 3 and ≥4) in each of the genotypes (WT, prr-1, prr-2).
Shoot regeneration was also measured in RER knock out mutants (rer-1 and rer-3) compared to wild type (WT) tomato plants (Ailsa Craig) in the presence and absence of SIPEP (REF1).

LA1777 tomatoes = test: Shoot regeneration of recalcitrant wild tomato LA1777; assay type: cell-based, S. habrochaites; conditions: LA1777, 1 nM REF1 vs REF1 absent
Protocol: (a) photos of LA1777 grown in the presence and absence of 1 nM REF1. (b) relative regeneration frequency of LA1777 grown in the presence and absence of 1 nM REF1. (c) number of hypocotyl of LA1777 grown in the presence and absence of 1 nM REF1.
(a) photos of control LA1777 tomatoes, PRR expressing LA1777 tomatoes, RER expressing LA1777 tomatoes, and PRR and RER expressing LA1777 tomatoes exposed to 1 nM REF1 for 25 days, or absence of REF1 (mock). (b) relative regeneration frequency of control LA1777 tomatoes, PRR expressing LA1777 tomatoes, RER expressing LA1777 tomatoes, and PRR and RER expressing LA1777 tomatoes exposed to 1 nM REF1 for 25 days, or absence of REF1 (mock).
The effect of exogenously applied REF1 in a shoot inducing growth medium was investigated in LA1777 tomatoes by growing LA1777 tomatoes in the presence and absence of 1 nM REF1. […] Likewise, FIG. 20B shoes that relative regeneration frequency of LA1777 was 6-fold higher when grown in the presence of REF1 compared to when REF1 was absent, similarly, the number of hypocotyl was also higher in the presence of REF1.

PI126944 tomatoes = test: Shoot regeneration of recalcitrant wild tomato PI126944; assay type: cell-based, S. peruvianum; conditions: PI126944, 1 nM REF1 vs REF1 absent
Protocol: (a) photos of PI126944 grown in the presence and absence of 1 nM REF1. (b) relative regeneration frequency of PI126944 grown in the presence and absence of 1 nM REF1. (c) number of hypocotyl of PI126944 grown in the presence and absence of 1 nM REF1.
(a) Photos of P126944 tomatoes (WT, PRR transformed, RER transformed, and PRR+RER transformed, grown in presence or absence of 1 nM REF1 for 19 days. (b) relative regeneration frequency of P126944 tomatoes (WT, PRR transformed, RER transformed, and PRR+RER transformed, grown in presence or absence of 1 nM REF1 for 19 days.
The effect of exogenously applied REF1 in a shoot inducing growth medium was investigated in PI126944 tomatoes by growing PI126944 tomatoes in the presence and absence of 1 nM REF1.
PI126944 tomatoes were transformed with the PRR+RER-OE construct as well as an equivalent construct only containing PRR and another construct only containing RER. Plants expressing these constructs along with a wild type control were grown in the presence or absence of REF1 for 19 days.

SIWIND1 promoter = SIWIND1 promoter activity (pSIWIND1::GUS) in cut hypocotyls; assay type: cell-based, tomato; conditions: cut hypocotyls on MS medium with or without 1 nM REF1
Protocol: (a) Induction of the SIWIND1 promoter activity at the wound sites of hypocotyl explants. Hypocotyl explants of 7-d-old pSIWIND1::GUS plants were cultured on MS medium with or without 1 nM REF1. Representative images of hypocotyls at indicated time after wounding are shown. Bars, 1 mm. […] Hypocotyls of 7-d-old seedlings of the indicated genotypes were cut and hypocotyl explants were cultured on MS medium for 9 h before gene expression analysis. Hypocotyls of undamaged seedlings were harvested as control. Data are mean±SD, n=3 biological repeats. (c and d) REF1-induced callus formation in WT and sIwind1 mutants. Hypocotyl explants were cultured on CIM with or without 1 nM REF1 for 14 d before callus phenotype was scored. Shown are representative callus images (c) and quantification of the callus projection area (d). […] Hypocotyl explants were cultured on CIM for 14 d and then transferred to SIM with or without 1 nM REF1 for 21 d before shoot organogenesis phenotype was scored. […] Hypocotyl explants were cultured on CIM for 14 d before callus phenotype was scored. Shown are representative callus images (g) and quantification of the callus projection area (h). […] Hypocotyl explants were cultured on CIM for 14 d and then transferred to SIM for 21 d before shoot organogenesis phenotype was scored. […] In (h) and (j), statistical significance was determined by a student's t test (***p<0.001, **p<0.01, *p<0.05). […]

[2] = WT, prr-1 and prr-2, SIM with 1 nM REF1, 21 days

“ATDRRGRPPSRPKVGSGPPPQNN (listed as Solanum lycopersicum) [REF1, 23 amino acid tomato peptide cleaved from precursor PROSIPEP]” was tested, and the shoot regeneration ([1]; WT Ailsa Craig, SIM with 1 nM REF1 vs without, 21 days) was “increased; also recorded: highest”, the number of hypocotyl [1, 2] was “increased” and the relative regeneration frequency [1, 2] was “increased”. For the same sequence, the shoot regeneration ([1]; prr-1 and prr-2 mutants, SIM with 1 nM REF1, 21 days) was “rescued”, the “REF1 induced shoot regeneration (shoot regeneration frequency, number of hypocotyl)” value ([1]; rer-1 and rer-3 knockouts, presence vs absence of REF1) was “did not lead to any increase; also recorded: defective” and the number of hypocotyl (LA1777 tomatoes) was “higher”. The “relative regeneration frequency, increase” value (LA1777 tomatoes) was ~ 6 fold and 6 fold, the shoot regeneration (LA1777 tomatoes) was “greater shoot regeneration; also recorded: promotes shoot regeneration” and the number of hypocotyl (PI126944 tomatoes) was “higher”. For the same sequence, the “relative regeneration frequency, increase” value (PI126944 tomatoes) was 5.5 fold, the shoot regeneration (PI126944 tomatoes) was “greater shoot regeneration; also recorded: promotes shoot regeneration” and the “SIWIND1 promoter activity / expression” value (SIWIND1 promoter) was “enhanced; also recorded: promoting SIWIND1 expression”.
